Measured values published in PMC11858653, “Design, Synthesis and Bioactive Evaluation of Topo I/c-MYC Dual Inhibitors to Inhibit Oral Cancer via Regulating the PI3K/AKT/NF-κB Signaling Pathway” (Molecules, 2025).

Tests used:
[1] = system: Cal27; assay: MTT antiproliferative assay, Cal27; assay type: cell-based, human; settings: 48 h, mean ± SD
Description: (§1) Having evaluated their Topo I inhibitory activity, the antiproliferative activity of the target compounds against some common human cancer cell lines (NCI-H460, A549, ACHN, Cal27 and MGC-803) and one normal cell line (SV-HUC-1) was tested via an MTT assay. TPT, the first Topo I inhibitor approved in clinics, and cisplatin (CDDP), a commonly selected anticancer drug for treating head and neck malignancies, were used as the positive controls.
(§2) Human oral cancer Cal27 cells were seeded in 96-well plates and incubated overnight in 180 μL of medium containing 10% Fetal Bovine Serum (Gibco, San Francisco, CA, USA). […] Then, 10 μL of 5 mg/mL MTT solution was added to each well and incubated at 37 °C for 4 h. After 4 h of incubation at 37 °C, the MTT-containing medium was removed and DMSO was added to each well and the absorbance at 570 nm and 630 nm was measured using a microplate reader (CYTATION 3, Burton, Westwood, NJ, USA). Survival/% = (mean OD of experimental group/mean OD of control group) × 100%. Each test was repeated at least three times.

[2] = system: human oral cancer Cal27 xenograft tumor; assay: In vivo antitumor activity, Cal27 xenograft; parameters: species or system BALB/c nude mice; settings: 2 mg/kg i.p. once every other day, 21 days
Description: Nude mouse organ and tumor tissues fixed with neutral formalin solution were paraffin-embedded according to the conventional processing method. Sections were cut to a thickness of approximately 5 μm, placed on glass slides and dewaxed in an oven at 60 °C, stained for H&E and immunohistochemistry and finally visualized with the Cytation 5 imaging system.
For this assay, 130 SPF-grade BALB/c mice (female, 4–6 weeks old, 18–20 g) were obtained from Chang Zhou Cavens Laboratory Animal Ltd. (Changzhou, China). The in vivo activity experiments were commissioned by Nanjing OG Pharmaceuticals, Co., Ltd. (Nanjing, China) All mice were housed in plastic cages, fed, and watered under standard conditions and air filtration (22 ± 2 °C; 12 h light/dark cycles). Under aseptic conditions, human oral cancer Cal27 cells were inoculated subcutaneously in the right axilla of BALB/c nude mice. When the tumors had grown to about 85 mm^3, 24 […] mice with good growth status and good homogeneity of tumor size were selected and randomly divided into the following four groups of six mice each: (1) the model group; (2) the low-dose group; (3) the high-dose group; and (4) the positive drug group. The drug dose in the low-dose group was 10 mg/kg, which was injected intraperitoneally once every other day, for the duration of 21 days of administration; the drug dose in the high-dose group was 20 mg/kg, which was injected intraperitoneally once every other day, for the duration of 21 days of administration; and the drug dose in the cisplatin group was 2 mg/kg, which was injected intraperitoneally once every other day, for the duration of 21 days of administration. Normal tissues of the heart, liver, spleen, lung and kidney and half of the tumor tissues were fixed with 4% formalin solution and embedded in paraffin for histological analysis; the other half of the tumor tissues were preserved in liquid nitrogen, and the supernatant was extracted after milling the tissues and detected by Western blot.

[3] = system: NCI-H460; assay: MTT antiproliferative assay, NCI-H460; assay type: cell-based, human; settings: 48 h, mean ± SD
Description: as §1, §2

[4] = system: MGC-803; assay: MTT antiproliferative assay, MGC-803; assay type: cell-based, human; settings: 48 h, mean ± SD
Description: as §1, §2

[5] = system: A549; assay: MTT antiproliferative assay, A549; assay type: cell-based, human; settings: 48 h, mean ± SD
Description: as §1, §2

[6] = system: ACHN; assay: MTT antiproliferative assay, ACHN; assay type: cell-based, human; settings: 48 h, mean ± SD
Description: as §1, §2

[7] = system: Cal27 cells; assay: MTT cell survival with autophagy inhibitor CQ; assay type: cell-based, human; settings: Cal27, 20 μM alone
Description: Meanwhile, to further confirm that compound 7be could induce autophagic death in Cal27 cells, we used a classical autophagy inhibitor, chloroquine (CQ), to evaluate the role of autophagy in compound 7be-mix-induced cell death.
Human oral cancer Cal27 cells were seeded in 96-well plates and incubated overnight in 180 μL of medium containing 10% Fetal Bovine Serum (Gibco, San Francisco, CA, USA). On the following day, compounds at final concentrations of 2.5, 5, 10 and 20 μM were added to each well and incubated for 48 h. Then, 10 μL of 5 mg/mL MTT solution was added to each well and incubated at 37 °C for 4 h. After 4 h of incubation at 37 °C, the MTT-containing medium was removed and DMSO was added to each well and the absorbance at 570 nm and 630 nm was measured using a microplate reader (CYTATION 3, Burton, Westwood, NJ, USA). Survival/% = (mean OD of experimental group/mean OD of control group) × 100%. Each test was repeated at least three times.

SMILES	IC50 [1] [µM]	relative tumor proliferation rate [2] [%]	tumor inhibition rate / tumor growth inhibition (TGI) [2] [%]	tumor inhibition rate / tumor growth inhibition (TGI) ([2]; listed as cisplatin) [%]	IC50 [3] [µM]	IC50 [4] [µM]	IC50 [5] [µM]	IC50 [6] [µM]	cell survival rate versus control group ([7]; 24 h)	cell survival rate ([7]; 48 h)
[NH2][Pt]([NH2])([Cl])[Cl] [CDDP, cisplatin, reference compound]	8.81 ± 1.73	39.8	59.44	59.4	12.2 ± 1.01	12.3 ± 0.8	8.69 ± 1.05	12.4 ± 1.31	–	–
CCN(CC)CCCC(C)Nc1ccnc2cc(Cl)ccc12 (stereo not shown) [CQ, chloroquine]	–	–	–	–	–	–	–	–	not significantly different	more than 80%
